Results: ChEMBL document CHEMBL4715849, “Recent Progress in the Discovery of Antifungal Agents Targeting the Cell Wall” (J Med Chem, 2020)
In brackets after ≈: the same amount, converted by molar mass. One block for each compound: values may come before it. Square brackets hold non-standard residues; d marks the D form. Peptide text beside a SMILES is read from it. * marks the point of attachment. Fumaryl(OMe) = COC(=O)/C=C/C(=O)*; Dap = NC[C@H](N)C(=O)O

Key:
[1] = test system: Candida albicans; assay: Antifungal activity against Candida albicans infected in mouse assessed as protection against fungus-induced lethal infection; assay type: functional; settings: read-out: PD50
[2] = test system: Candida albicans; assay: Antifungal activity against Candida albicans AMB-25 incubated for 48 hrs by serial two-fold dilution method; assay type: functional
[3] = test system: Candida albicans; assay: Antifungal activity against Candida albicans ATCC 262 incubated for 24 hrs by turbidimetric method; assay type: functional
[4] = test system: Candida albicans; assay: Antifungal activity against Candida albicans incubated for 24 hrs by turbidimetric method; assay type: functional
[5] = Inhibition of fungi 1,3-beta-D-glucan synthase
[6] = test system: Aspergillus fumigatus; assay: Antifungal activity against Aspergillus fumigatus CF1083 infected in iv dosed mouse model of pulmonary aspergillosis administered once daily for 4 days and measured on day 14; assay type: functional; settings: 336 h, time 14 day
[7] = Inhibition of Candida albicans IFO1060 1,3-beta-D-glucan synthase
[8] = test system: Candida parapsilosis; assay: Antifungal activity against Candida parapsilosis K332 by agar incorporation method; assay type: functional; settings: Lodderomyces parapsilosis
[9] = test system: Candida albicans; assay: Antifungal activity against Candida albicans K341 by agar incorporation method; assay type: functional
[10] = test system: Candida parapsilosis; assay: Antifungal activity against Candida parapsilosis K1154 by agar incorporation method; assay type: functional; settings: Lodderomyces parapsilosis
[11] = test system: Candida tropicalis; assay: Antifungal activity against Candida tropicalis K337 by agar incorporation method; assay type: functional
[12] = test system: Cyberlindnera jadinii; assay: Antifungal activity against Candida utilis K482 by agar incorporation method; assay type: functional; settings: Williopsis jadinii
[13] = test system: Meyerozyma guilliermondii; assay: Antifungal activity against Candida guilliermondii K334 by agar incorporation method; assay type: functional
[14] = test system: Candida tropicalis; assay: Antifungal activity against Candida tropicalis K1155 by agar incorporation method; assay type: functional
[15] = test system: Candida albicans; assay: Antifungal activity against Candida albicans K1133 by agar incorporation method; assay type: functional
[16] = test system: Candida albicans; assay: Antifungal activity against Candida albicans K335 by agar incorporation method; assay type: functional
[17] = test system: Candida albicans; assay: Antifungal activity against Candida albicans K1082 by agar incorporation method; assay type: functional
[18] = test system: Pichia kudriavzevii; assay: Antifungal activity against Candida krusei K1153 by agar incorporation method; assay type: functional

Structure (SMILES): COc1cc(O)c2c(c1)C(=O)c1c(cc3c(c1O)-c1c(cc(C)c(C(=O)N[C@H](CO)C(=O)O)c1O)[C@H](O[C@@H]1O[C@H](C)[C@H](O)[C@H](O[C@@H]4OC[C@@H](O)[C@H](O)[C@H]4O)[C@H]1O)[C@H]3O)C2=O
ED50 [1]: 33 mg/kg

Structure (SMILES): CCCCCCCCCCCCC[C@H]1OC(=O)[C@H](CCCN(CCCN)C(=O)[C@H](CCCN)N(CCN)CCN)NC(=O)[C@@H]([C@@H](C)O)NC(=O)CNC(=O)[C@H]([C@H](O)CC(N)=O)NC(=O)[C@H]2[C@@H](O)CCN2C(=O)[C@H]([C@@H](C)O)NC(=O)[C@@H]2C[C@@H](O)CN2C(=O)[C@H](C(C)C)NC(=O)[C@H](Cc2ccc(O)cc2)NC(=O)[C@@H](C)NC(=O)[C@H]([C@@H](C)O)NC1=O
IC50 [5]: 0.25 nM | ED50 [6]: 5.2 mg/kg

Structure (SMILES): CCCCCCCCCCCCC[C@H]1OC(=O)[C@H](CCCN(CCN)CCN)NC(=O)[C@@H]([C@@H](C)O)NC(=O)CNC(=O)[C@H]([C@H](O)CC(N)=O)NC(=O)[C@H]2[C@@H](O)CCN2C(=O)[C@H]([C@@H](C)O)NC(=O)[C@@H]2C[C@@H](O)CN2C(=O)[C@H](C(C)C)NC(=O)[C@H](Cc2ccc(O)cc2)NC(=O)[C@@H](C)NC(=O)[C@H]([C@@H](C)O)NC1=O
IC50 [7]: 2 nM

Structure (SMILES): CCCCCCCCCCCCC[C@H]1OC(=O)[C@H](CCCNC(=O)[C@H](N)CCCN)NC(=O)[C@@H]([C@@H](C)O)NC(=O)CNC(=O)[C@H]([C@H](O)CC(N)=O)NC(=O)[C@H]2[C@@H](O)CCN2C(=O)[C@H]([C@@H](C)O)NC(=O)[C@@H]2C[C@@H](O)CN2C(=O)[C@H](C(C)C)NC(=O)[C@H](Cc2ccc(O)cc2)NC(=O)[C@@H](C)NC(=O)[C@H]([C@@H](C)O)NC1=O
IC50 [7]: 5 nM

Structure (SMILES): COc1cc(O)c2c(c1)C(=O)c1c(cc3c(c1O)-c1c(cc(C)c(C(=O)NC(C)C(=O)O)c1O)[C@H](O[C@@H]1O[C@H](C)[C@H](O)[C@H](O[C@@H]4OC[C@@H](O)[C@H](O)[C@H]4O)[C@H]1O)[C@H]3O)C2=O (some centres undefined)
ED50 [1]: 71 mg/kg

Structure (SMILES): CCCCCCCCCCCCC[C@H]1OC(=O)[C@H](CCCN(CCCN)C(=O)[C@@H](CCCN)N(CCN)CCN)NC(=O)[C@@H]([C@@H](C)O)NC(=O)CNC(=O)[C@H]([C@H](O)CC(N)=O)NC(=O)[C@H]2[C@@H](O)CCN2C(=O)[C@H]([C@@H](C)O)NC(=O)[C@@H]2C[C@@H](O)CN2C(=O)[C@H](C(C)C)NC(=O)[C@H](Cc2ccc(O)cc2)NC(=O)[C@@H](C)NC(=O)[C@H]([C@@H](C)O)NC1=O
IC50 [5]: 0.28 nM | ED50 [6]: 5.2 mg/kg

Structure (SMILES): CCCCCCCCCCCCC[C@H]1OC(=O)[C@H](CCCNC(=O)[C@@H](CCCN)N(CCN)CCN)NC(=O)[C@@H]([C@@H](C)O)NC(=O)CNC(=O)[C@H]([C@H](O)CC(N)=O)NC(=O)[C@H]2[C@@H](O)CCN2C(=O)[C@H]([C@@H](C)O)NC(=O)[C@@H]2C[C@@H](O)CN2C(=O)[C@H](C(C)C)NC(=O)[C@H](Cc2ccc(O)cc2)NC(=O)[C@@H](C)NC(=O)[C@H]([C@@H](C)O)NC1=O
IC50 [5]: 0.9 nM | ED50 [6]: 5.2 mg/kg

Structure (SMILES): CCCCCCCCCCCCC[C@H]1OC(=O)[C@H](CCCN(CCN)C(=O)[C@H](CCCN)N(CCN)CCN)NC(=O)[C@@H]([C@@H](C)O)NC(=O)CNC(=O)[C@H]([C@H](O)CC(N)=O)NC(=O)[C@H]2[C@@H](O)CCN2C(=O)[C@H]([C@@H](C)O)NC(=O)[C@@H]2C[C@@H](O)CN2C(=O)[C@H](C(C)C)NC(=O)[C@H](Cc2ccc(O)cc2)NC(=O)[C@@H](C)NC(=O)[C@H]([C@@H](C)O)NC1=O
IC50 [5]: 0.2 nM | ED50 [6]: 5.2 mg/kg

Now from value to compound:

MIC [2]: 0.4 µg/mL (≈ 1.21 µM)
Structure (SMILES): CCCCC(N)C(=O)N[C@@H](CNC(=O)/C=C/C(=O)OC)C(=O)O (some centres undefined)

MIC [2]: 0.4 µg/mL (≈ 1.15 µM)
Structure (SMILES): COC(=O)/C=C/C(=O)NC[C@H](N)C(=O)N[C@@H](CCSC)C(=O)O

MIC [3]: 0.025 µg/mL (≈ 0.0337 µM) | MIC [4]: 0.025 µg/mL (≈ 0.0337 µM)
Structure (SMILES): COC(=O)/C=C/C(=O)NC[C@H](NC(=O)[C@H](CCSC)NC(=O)[C@H](CCSC)NC(=O)[C@H](CCSC)NC(=O)[C@@H](N)CCSC)C(=O)O (H-MMMM[Dap](Fumaryl(OMe))-OH)

MIC [3]: 0.025 µg/mL (≈ 0.0698 µM) | MIC [4]: 0.025 µg/mL (≈ 0.0698 µM)
Structure (SMILES): COC(=O)/C=C/C(=O)NC[C@H](NC(=O)[C@H](C)N)C(=O)N[C@@H](C)C(=O)O

MIC [3]: 0.025 µg/mL (≈ 0.0522 µM) | MIC [4]: 0.025 µg/mL (≈ 0.0522 µM)
Structure (SMILES): COC(=O)/C=C/C(=O)NC[C@H](NC(=O)[C@@H](N)CCSC)C(=O)N[C@@H](CCSC)C(=O)O

MIC [3]: 0.025 µg/mL (≈ 0.0599 µM) | MIC [4]: 0.025 µg/mL (≈ 0.0599 µM)
Structure (SMILES): COC(=O)/C=C/C(=O)NC[C@H](NC(=O)[C@H](C)NC(=O)[C@@H](N)CCSC)C(N)=O

MIC [2]: 0.4 µg/mL (≈ 1.05 µM)
Structure (SMILES): COC(=O)/C=C/C(=O)NC[C@H](NC(=O)[C@H](N)Cc1ccc(O)cc1)C(=O)O

MIC [2]: 0.4 µg/mL (≈ 1.46 µM)
Structure (SMILES): COC(=O)/C=C/C(=O)NC[C@H](NC(=O)CN)C(=O)O

MIC [3]: 0.05 µg/mL (≈ 0.121 µM) | MIC [4]: 0.025 µg/mL (≈ 0.0603 µM)
Structure (SMILES): CCC[C@H](NC(=O)[C@H](CNC(=O)/C=C/C(=O)OC)NC(=O)[C@@H](N)CCC)C(=O)O

IC50 [7]: 8 nM
Structure (SMILES): CCCCCCCCCCCCC[C@H]1OC(=O)[C@H](CCCNC(=O)[C@@H](N)CCCN)NC(=O)[C@@H]([C@@H](C)O)NC(=O)CNC(=O)[C@H]([C@H](O)CC(N)=O)NC(=O)[C@H]2[C@@H](O)CCN2C(=O)[C@H]([C@@H](C)O)NC(=O)[C@@H]2C[C@@H](O)CN2C(=O)[C@H](C(C)C)NC(=O)[C@H](Cc2ccc(O)cc2)NC(=O)[C@@H](C)NC(=O)[C@H]([C@@H](C)O)NC1=O

MIC [2]: 0.4 µg/mL (≈ 1.21 µM)
Structure (SMILES): COC(=O)/C=C/C(=O)NC[C@H](NC(=O)[C@H](N)CC(C)C)C(=O)O

MIC [8]: 0.1 µg/mL (≈ 0.174 µM) | MIC [9]: 0.1 µg/mL (≈ 0.174 µM) | MIC [10]: 0.1 µg/mL (≈ 0.174 µM) | MIC [11]: 0.1 µg/mL (≈ 0.174 µM) | MIC [12]: 0.1 µg/mL (≈ 0.174 µM) | MIC [13]: 0.1 µg/mL (≈ 0.174 µM) | MIC [14]: 0.1 µg/mL (≈ 0.174 µM) | MIC [15]: 0.1 µg/mL (≈ 0.174 µM) | MIC [16]: 0.1 µg/mL (≈ 0.174 µM) | MIC [17]: 0.1 µg/mL (≈ 0.174 µM) | MIC [18]: 0.1 µg/mL (≈ 0.174 µM)
Structure (SMILES): CC[C@H](C)CC/C=C/C=C(\C)[C@@H](O)C/C=C/C=C/C(=O)O[C@H]1[C@H](O)[C@@H](CO)O[C@]2(OCc3cc(O)cc(O)c32)[C@@H]1O
